# Laboratory results published in patent US6589938B2, “Use of angiotensin I derivatives as an agent for the treatment and prevention of infarction-related cardiac injuries and disorders” (National University of Singapore, priority 2001, dated 2003).
# Tested on: experimentally-infarcted rats
# Experiment: Infarct scar area and transmurality after coronary occlusion and reperfusion in rats
# Format: in vivo, Sprague Dawley rats
# Settings: for Transmurality, Treated: infarct scar area divided by infarct area; for Transmurality, Treated / Infarct Scar Area, Treated: mean ± SEM, 7 rats; for Infarct Scar Area, Treated: left ventricle
# Description: The experimental protocol for induction of cardiac infarction by coronary occlusion and reperfusion in rats was carried out as described by Oh et al. (10). Briefly, each rat was anaesthetized with 7% w/v chloral hydrate (0.4 g/kg, i.p.). Each anaesthetised animal was intubated and ventilated with a rodent ventilator. Under a dissecting microscope, a left thoracotomy was performed in the fourth intercostal space, and the pericardium open. The left coronary artery was encircled with a curved needle and a silk suture. The left coronary artery was ligated for 45 minutes, followed by reperfusion. In sham-operated animals, the left coronary artery was not ligated. The chest was closed in layers and the pneumothorax evacuated.
# Following the surgery, each animal was placed in a cage. The animals had access to water and rat chow ad libitum. The animals were randomly divided into the control group and treatment group. Each group consisted of 7 animals. The treatment group was orally administered 381 nmoles/kg/day of des-Asp-angiotensin I (dissolved in 1 ml water) for 14 days. The control group was similarly administered an equivalent volume of water. The experiment was repeated with the following doses of des-Asp-angiotensin I: 762, 1524, and […] nmoles/kg/day.
# On the fourteenth day following surgery, animals were anaesthetised as before. Rats were ventilated as before and the thorax was opened. A polyethylene catheter (PE 200) was introduced into the left ventricle (via the left atrial appendage) and another into the descending aorta retrogradely. The heart was arrested with 2 ml injection of saturated KCl solution into the right atrium. After aortic perfusion with heparinized saline (10,000 units/L) for 3 minutes to wash out the blood, the myocardium was perfused retrogradely from the aorta with 4% phosphate-buffered paraformaldehyde at a constant pressure of 60 mm Hg for 20 minutes. The right atrium and pulmonary artery were opened to decompress the right ventricle during fixation. The left ventricle intracavity pressure was maintained at 10 mm Hg by use of the cathether introduced via the left atrial appendage.
# After hardening, the heart was excised and postfixed in 4% paraformaldehyde for 24 hours. Following postfixing, the atria and adhensions were carefully dissected away and the right and left ventricles were separated, the interventricular septum being included with the left ventricle. The left ventricle was processed for paraffin embedment. Transverse serial sections of 40 μm thick were cut from the apex of the ventricle to its base. Every section at 1 mm intervals was mounted and stained with Milligan's trichrome. The infracted tissue (infarct scar) was stained blue. Two sections, taken at 5 and 6 mm, respectively, from the apex of each ventricle were used for morphometric determination of the infarct scar area and transmurality. The morphometry system consisted of a BX40 light microscope (Olympus, Japan) fitted with a KYF55B colour video camera (JVC, Japan) and a Pentium 166 MHz/MKX microcomputer (Datamini, Singapore) installed with an image Pro Plus 3.0 System (Media Cybernetics, USA) for Windows 95™. The infarct scar area, infarct area (which measured the scar and the surrounding surviving ventricular tissue) were determined in mm2. Transmurality is equal to the infarct scar area divided by infarct area.
# The results of the study are summarized in Table 2 Data were expressed as mean±SEM. Significant differences were determined by one way ANOVA and post hoc Newman Kleuf test. The accepted level of significance was p<0.05. […] The effect was dose dependent and significant anti-infarction action was brought about by an oral dose of 1524 nmoles/kg/day.
# [1] = 381 nmole/kg/day orally for 14 days
# [2] = 762 nmole/kg/day orally for 14 days
# [3] = 1524 nmole/kg/day orally for 14 days, * p < 0.05 vs Control
# [4] = 3096 nmole/kg/day orally for 14 days, * p < 0.05 vs Control
substance,measurement,setting,value
Des-Aspartate angiotensin I [des-Asp-angiotensin I],"Transmurality, Treated",[1],32.93 ± 1.94%
same,"Infarct Scar Area, Treated",[1],5.85 ± 0.25 mm^2
same,"Transmurality, Treated",[2],33.70 ± 3.40%
same,"Infarct Scar Area, Treated",[2],5.60 ± 0.30 mm^2
same,"Transmurality, Treated",[3],24.67 ± 2.37* %
same,"Infarct Scar Area, Treated",[3],5.11 ± 0.54* mm^2
same,"Transmurality, Treated",[4],31.26 ± 1.53* %
same,"Infarct Scar Area, Treated",[4],5.86 ± 0.20* mm^2
same,attenuating the infarct size area and transmurality,"experimentally-induced myocardial infarcted rats, oral, 14 days",effective agent
same,oral dose that brought about significant anti-infarction action,"oral, 14 days, p<0.05, one way ANOVA",1524 nmol/kg/day
